Where a name gives a salt, the structure may show the parent alone.
Tested on: peptide sequence L-Lys-D-Ala-D-Ala
Assay: Binding constant by laser light scattering (LLS) on perfluoropolymer latex particles coated with receptor-ended surfactant
Excerpt: More specifically the use comprises the following steps: • a) addition to a colloidal aqueous suspension or latex of particles having an average diameter between 5 and 200 nm, preferably between 40 and 80 nm, formed of a perfluorinated, semicrystalline or amorphous polymer, of a sequence of known volumes of an aqueous solution of a mixture containing from 50% to 99.5% by weight of an amphiphylic non ionic surfactant and from 0.5 to 50% by weight of a surfactant ended with a receptor, measuring after each addition the intensity of the scattered light by the suspension by Laser Scattering Light (LLS) and reporting it on a diagram in function of the progressively added solution volume, until reaching an asymptotic value (Ir); • b) addition to the suspension obtained in step a) of a sequence of known volumes of a ligand aqueous solution, measuring after each addition the intensity of the scattered light by the suspension by Laser Scattering Light (LLS) its reporting on a diagram in function of the progressively added solution volume (expressed as molar concentration [T0]), until reaching an asymptotic value and fitting the scattered light intensity data (I) in function of the ligand additions ([T0]) with formula (1) to obtain the receptor-ligand binding constant (K), wherein formula (1) is: […]

`CN[C@H](CC(C)C)C(=O)N[C@H]1C(=O)N[C@@H](CC(N)=O)C(=O)N[C@H]2C(=O)N[C@H]3C(=O)N[C@H](C(=O)N[C@H](C(=O)O)c4cc(O)cc(O)c4-c4cc3ccc4O)[C@H](O)c3ccc(c(Cl)c3)Oc3cc2cc(c3O[C@@H]2O[C@H](CO)[C@@H](O)[C@H](O)[C@H]2O[C@H]2C[C@](C)(N)[C@H](O)[C@H](C)O2)Oc2ccc(cc2Cl)[C@H]1O` [Vancomycin, Vancomycin hydrochloride hydrate] showed a receptor-ligand binding constant (Example 1: 0.1% latex, 78 nm particles of TFE copolymer with 40% by moles perfluoromethylvinylether, 0.4 millimole Vancomycin solution in 6 microlitre portions, Langmuir fit) of 1.5e+06 mol⁻¹ and a receptor-ligand binding constant (Example 2: 0.1% latex, 40 nm particles of TFE copolymer with 30% by moles TTD, 0.9 millimolar Vancomycin in 6 microlitre portions) of 1.1e+06 mol⁻¹.
